{"source": "patent US5525627A", "about": "“Esters of acyl carnitines with long-chain aliphatic alcohols and pharmaceutical compositions containing same having antimycotic activity” (Sigma-Tau Industrie Farmaceutiche Riunite S.p.A., priority 1992, dated 1996)", "key": {"[1]": {"system": "spleen, thymus and splenocytes", "experiment": "Test 3: body, spleen and thymus weight and splenocyte concentration", "assay_type": "in vivo, mice (male B6 D2 F1)", "conditions": "100 mg/kg/day oral, 5 consecutive days", "protocol": "Test 3: Evaluation of the effect of repeated oral administrations of ST 722 on the body, spleen and thymus weight, and on the splenocyte concentration in mice.\nMale B6 D2 F1 mice (C. River) aged 10 weeks (5 animals each group) were orally treated with the substance ST 722 at the dose of 100 mg/kg/day for 5 consecutive days. Twenty-four hours after the last administration, the animals were sacrificed, the organs removed and weighed, and the splenocyte number determined."}, "[2]": {"system": "Epidermophyton floccosum (IHEM 3495)", "experiment": "MIC for dermatophytic fungi", "assay_type": "cell-based", "conditions": "35° C., 96 hours, read-out: Minimal Inhibitory Concentration (MIC)", "protocol": "(§1) The following strains were used: Trichophyton menthagrophytes ATCC 9533, Trichophyton rubrum IHEM 4274, Microsporum canis IHEM 3522, Epydermophyton floccosum IHEM 3495. The tested substances were: ST 722, ST 1033, ST 1037, ST 1050, ST 1051, ST 1052,. ST 1053.\n(§2) The assay was performed following the same procedure described for the yeasts, by using 7-day fungi cultures grown at 30° C. in Potato Dextrose agar, and harvested with Sabouraud broth and Tween 80 (0.5%).\n(§3) After washing with Yeast Nitrogen Base, supplemented with asparagine and glucose (as carbon source), the fungal suspension was fragmented using a tissue grinder until the largest clumps or aggregates were undetectable within the grinder. This fungal suspension was then appropriately diluted in YNB to yield a concentration of 2.0×10^5 infective particles/ml (small mycelium fragments, micro-and macroaleuriospores).\n(§4) Volumes of 100 μl both of the fungal suspensions and substance solutions, two-fold serially diluted in assay medium, were distributed into each well of a microtiter plate (96 wells, round bottom), which was incubated at 35° C. for 96 hours."}, "[3]": {"system": "Trichophyton menthagrophites (ATCC 9533)", "experiment": "MIC for dermatophytic fungi", "assay_type": "cell-based", "conditions": "ATCC9533, 35° C., 96 hours, read-out: Minimal Inhibitory Concentration (MIC)", "protocol": "as §1, §2, §3, §4"}, "[4]": {"system": "Microsporum canis (IHEM 3522)", "experiment": "MIC for dermatophytic fungi", "assay_type": "cell-based", "conditions": "35° C., 96 hours, read-out: Minimal Inhibitory Concentration (MIC)", "protocol": "as §1, §2, §3, §4"}, "[5]": {"system": "Trichophyton rubrum (IHEM 4274)", "experiment": "MIC for dermatophytic fungi", "assay_type": "cell-based", "conditions": "35° C., 96 hours, read-out: Minimal Inhibitory Concentration (MIC)", "protocol": "as §1, §2, §3, §4"}, "[6]": {"system": "C. albicans PG", "experiment": "Systemic experimental infection with Candida albicans in mice", "assay_type": "in vivo, Candida albicans in mice (male CD1)", "conditions": "for % Mortality / Dead/Total: 60 days follow-up; for MST (mean survival time): range of variation in brackets, footnote p ≤ 0.05 (MannWithney \"U\" test), mark lost", "protocol": "Male CD1 mice (C. River) aged 6 or 13 weeks were used (12-15 animals per group).\nThe pathogenic strain of Candida utilized, i.e. C. albicans PG, was able, when inoculated intravenously, to cause multiple renal lesions and systemic dissemination, provoking death of the animals within 40 days from the challenge.\nA broth culture in Sabouraud broth is prepared from a 48-hour agar slant culture.\nAfter incubation for 48 hours at 37° C., the broth culture is first washed 3 times with sterile saline, then adjusted to a concentration of 2.0×10^6 cells/ml. Volumes of 0.25 ml of this suspension are i.v. injected into the animals, with a resulting infective dose approximately corresponding to DL100.\nST 722 was administered per os following two different protocols:\nI) 100 mg/kg administered at +2, +12, +24, +36 and +48 hours (i.e. 5 administrations in two days) with respect to the challenge.\nII) 100 mg/kg administered twice daily on 6 consecutive days (i.e. 12 adimistrations) starting from day -2 to day +3 with respect to the day of inoculation (day 0).\nAfter the challenge, the animals were followed up for 60 days, and the percent mortality as well as the mean survival time (MST) were evaluated. The statistical significance of the results was evaluated by means of Fisher \"exact test\" and Mann-Withney \"U\" test, respectively."}, "[7]": {"system": "antibody-producer B lymphocytes (spleen)", "experiment": "Test 1: primary antibody production (Jerne test) in spleen of SRBC immunized mice", "assay_type": "in vivo, mice (male B6 D2F1)", "protocol": "Test 1: Evaluation of the \"in vitro-ex vivo\" effect of repeated oral administrations of ST 722 on the primary antibody production (Jerne test) in the spleen of SRBC (Sheep Red Blood Cells) immunized mice.\nMale B6 D2F1 mice (C. River) aged 8 weeks (6 animals each group) were utilized.\nThe substance (ST 722) was administered per os at the dose of 100 mg/kg/day from day -2 through day +2 (immunization at day 0). The animals were immunized by intraperitoneal route with a concentration of 1.0×10^8 cells/mouse in 0.2 ml of sterile saline.\nFive days later, spleens to be submitted to teasing process were removed from the animals sacrificed by cervical dislocation. After standardization at 1.0×10^7 cells/ml. the splenocytes (0.1 ml) were mixed with warm agar-Hank's (2 ml) and 10% SRBC in PBS (0.2 ml) and seeded in Petri dishes (samples tested in triplicates) and incubated at 37° C. for 60 min.\nAfter addition of complement (2 ml of guinea pig serum diluted 1:10 in Tris buffer), samples were further incubated at 37° C. for 30 min. To block the haemolysis reaction, the Petri dishes were cooled at 4° C. and the haemolysis plaques were counted.\nThe antibody response to SRBC is expressed as number of plaque forming cells (PFC) per 1.0×10^6 splenocytes as well as per spleen."}, "[8]": {"system": "yeast-like fungi", "experiment": "MIC / MFC for yeast-like fungi, all strains", "assay_type": "cell-based, Candida, Cryptococcus, Saccharomyces, Torulopsis", "conditions": "versus susceptible strains; read-out: Mean MIC values", "outline": "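Candida, Cryptococcus, Saccharomyces and Torulopsis strains tested by broth microdilution in Yeast Nitrogen Base with 0.15% asparagine and 1.0% glucose, buffered with 0.165 M MOPS; final inoculum about 5.0×10^4 CFU/ml from overnight (Cryptococcus 48-hour) Sabouraud cultures. MFC from spot-transfer of wells without visible growth onto Sabouraud agar.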"}, "[9]": {"conditions": "protocol I: 100 mg/kg per os at +2, +12, +24, +36, +48 hours"}, "[10]": {"conditions": "protocol II: 100 mg/kg per os twice daily, day -2 to day +3"}, "[11]": {"conditions": "100 mg/kg/day per os, day -2 through day +2, x ± S.E."}}, "data": [{"smiles": "CCCCCCCCCCCOC(=O)C[C@H](C[N+](C)(C)C)OC(=O)CC(C)C", "note": "[ST 722, isovaleryl-L-carnitine undecyl ester chloride]", "values": [{"measurement": "specific immunotoxic effects on the considered parameters", "setting": "[1]", "result": "lack of specific immunotoxic effects"}, {"measurement": "Body weight", "setting": "[1]; x ± S.E.", "result": "26.50 ± 0.53", "unit": "g"}, {"measurement": "Spleen weight", "setting": "[1]; x ± S.E.", "result": "73.25 ± 3.84", "unit": "mg"}, {"measurement": "Thymus weight", "setting": "[1]; x ± S.E.", "result": "38.80 ± 3.01", "unit": "mg"}, {"measurement": "MIC", "setting": "[2]", "result": 50, "unit": "µg/mL"}, {"measurement": "MIC", "setting": "[3]", "result": 25, "unit": "µg/mL"}, {"measurement": "MIC", "setting": "[4]", "result": 25, "unit": "µg/mL"}, {"measurement": "MIC", "setting": "[5]", "result": 12.5, "unit": "µg/mL"}, {"measurement": "protective effect", "setting": "[6]; protocol I and II, per os", "result": "only in terms of MST prolongation"}, {"measurement": "% Mortality", "setting": "[6]; [9]", "result": 71.4, "unit": "%"}, {"measurement": "Dead/Total", "setting": "[6]; [9]", "result": "10/14"}, {"measurement": "MST (mean survival time)", "setting": "[6]; protocol I", "result": "37 (25-≥60) days"}, {"measurement": "percent mortality", "setting": "[6]; protocol II, per os", "result": "completely unaffected"}, {"measurement": "% Mortality", "setting": "[6]; [10]", "result": 71.4, "unit": "%"}, {"measurement": "Dead/Total", "setting": "[6]; [10]", "result": "10/14"}, {"measurement": "MST (mean survival time)", "setting": "[6]; protocol II", "result": "44 (32-≥60) days"}, {"measurement": "PFC/10^6 cells", "setting": "[7]; [11]", "result": "261 ± 34", "unit": "PFC/10^6 cells"}, {"measurement": "PFC/spleen", "setting": "[7]; [11]", "result": "44440 ± 6087", "unit": "PFC/spleen"}, {"measurement": "PFC number after antigenic challenge", "setting": "[7]; 5 consecutive days oral", "result": "did not cause a statistically significant modification in PFC number"}, {"measurement": "MIC", "setting": "[8]", "result": 3.76, "unit": "µg/mL"}]}]}
